Data as given in US20250327770A1, “Protein-Derived Peptide Multiplexes for Biomimetic Detection of VOC Profiles” (University of Washington, priority 2022, published 2025).
“Also recorded” adds a separate entry of the source.

Columns and labels:
QCM VOC binding, octanal = conditions: wet N2 gas stream
Procedure: (§1) VOC binding validation by QCM utilized chimeric molecular constructs tethered to a substrate in a VOC-doped gas stream. Gold QCM substrates (Qsense, Phoenix, AZ, USA) were coated with 10 nm thick carbon film by evaporation (SPI, West Chester, PA, USA). 10 μL of 1 μM aqueous peptide was deposited and incubated for 1 hour at room temperature, and then the sample was dried in a nitrogen gas stream. A KSV model Z500 QCM (Qsense, Phoenix, AZ, USA) was used to measure VOC binding to bare carbon (control), and peptide-coated substrates. Humidified nitrogen was measured as the baseline, then VOC was introduced by bubbling nitrogen through the VOC/deionized water mixture. The difference in resonant frequency between wet nitrogen and VOC mixture was reported, in which lower frequency indicated an increase in mass on the substrate due to VOC molecules binding to the surface.
(§2) Each of the six synthesized peptides was then tested against eight VOCs. The VOCs were chosen to include the targeted VOCs for all synthesized chimeric molecular constructs, plus ethanol as a common non-target. […] VOC adsorption caused damping of the QCM sensor—therefore, a higher affinity surface would produce a greater reduction in resonant frequency upon exposure to the gas stream. The concentration of the target VOC for each peptide was 20 μM, 10× lower than non-targets at 200 μM.

[1] = Peptide-sensitized CNT-FET sensor response to ethyl butyrate; conditions: gate voltage −1 V
Procedure: Sensors were placed in a box chamber that allowed gas flow into and out of the enclosure while allowing micromanipulator probes to be positioned on the sensor chip contact pads. Gas flow impinged directly above the sensor chip with a continuous flow rate of 50-60 SCCM as controlled by a flowmeter (Matheson, model FM-1050, Montgomeryville, PA, USA).
After placing the sensor chip into the gas chamber, a nitrogen purge of 2-3 minutes at 4 to 5 PSI in the gas line was performed in order to flush out ambient air trapped within the box enclosure. Transfer curve measurements were performed to determine sensor characteristics. The chip was then equilibrated in humidified N2 (“wet N2”) for 30-60 min by flowing in nitrogen gas that has passed through a gas bubbler filled with water. Sensor measurements were taken at this point to establish sensor baseline signal.
For peptide sensitization of the CNT sensing channel, the chip was removed from the gas chamber and dropcasted with 1.5 μL 100 μM peptide diluted in di-H2O. Peptide solution was pipetted directly onto the CNT sensing regions of the multiplexed chip and incubated for 60 minutes in a humidified environment to prevent evaporation. Devices were then spin dried by centrifugal force at 2,000 g. Sensor measurements were taken again after replacing the chip back into the gas chamber, purging with N2, and equilibrating in wet N2 for 30-60 min. Finally, the peptide-functionalized chip was exposed to humidified ethyl butyrate for 60-90 min before sensor measurements were taken.
Transfer curves were generated for each of the following experimental conditions: 1) Bare CNT sensors (i.e., non-functionalized) under non-humidified N2 gas exposure; 2) non-functionalized sensors under humidified N2 gas exposure; 3) peptide-functionalized sensors under humidified N2 gas exposure; and 4) peptide-functionalized sensors exposed to ethyl butyrate in humidified N2 carrier gas. Signal response was based on normalized source-drain current values obtained from the reverse sweep of the transfer curve at a gate potential of −1 V (Vg=−1 V), which was determined to be within the subthreshold voltage region for ethyl butyrate-exposed, peptide-functionalized sensors. […] Signal responses were normalized to their corresponding width-to-length CNT sensing channel dimensions. Mean signal response for each condition was calculated from a total of 9 to 13 technical replicates measured across two independent experiments (N=2).
Two VOC and C-binding peptides were used in order to functionalize CNT-FET devices and test their sensitivity to ethyl butyrate:MmedPep1-GrBP and BhorPep1-GrBP, which were predicted to bind to ethyl butyrate and a range of aldehydes and alkanes, respectively. […] However, the effect was reversed under ethyl butyrate exposure for CNT channels functionalized with MmedPep1-GrBP (FIG. 7B). Specifically, upon exposure to 378 mM ethyl butyrate solution (5% v/v in H2O), MmedPep1-GrBP-sensitized CNT-FET sensors measured 1.21±0.43 μA of current, compared to 0.20±0.9 μA for the aldehyde-sensitive BhorPep1-GrBP (p<0.001), as shown in FIG. 7C.

QCM VOC binding, nonanal = conditions: wet N2 gas stream
Procedure: as §1, §2

[2] = SPR adsorption of peptide onto carbon substrate; format: binding
Procedure: (§3) SPR (GE Healthcare, Biacore T200) was performed to validate specific adsorption of peptides onto a carbon substrate. Bare gold and carbon- and poly-L-lysine-functionalized substrates were used. Substrate fabrication used e-beam evaporation (CHA Industries, Solution Process Development System) of titanium (3-nm thick layer) then gold (47-nm thick layer) onto 1-cm^2 optical quality glass. A 20-nm thick carbon layer was sputtered (Kurt J. Lesker Company, Lab 18 Sputter System) onto the fabricated gold substrates at a rate of 10 Å per minute, and poly-L-lysine coatings were drop-cast incubated with 0.1% v/v poly-L-lysine for 30 minutes and rinsed with di-H2O, then air dried. A single-cycle kinetics curve was generated by sequential injection of MmedPep1-GBP peptide at 2-fold increasing concentrations up to 500 nM in buffer (100 mM KCl, 10 mM K+ phosphate). An injection flow rate of 30 μL/min and a temperature of 25° C. were used. Response values were plotted and fitted to a Langmuir isotherm curve by minimizing the sum of square differences between the dataset and the isotherm model.

[3] = SPR adsorption of peptide onto bare gold; format: binding; conditions: 500 nM peptide concentration
Procedure: as §3

[4] = SPR adsorption of peptide onto poly-L-lysine substrate; format: binding; conditions: 500 nM peptide concentration
Procedure: as §3

[5] = QCM VOC binding, ethyl butyrate; conditions: wet N2 gas stream
Procedure: as §1, §2

QCM VOC binding, ethanol = conditions: wet N2 gas stream
Procedure: as §1, §2

[6] = 378 mM ethyl butyrate solution (5% v/v in H2O), Vsd=−5 V

GIVLLATYEKIISIYFIFFGGGYSSY [BhorPep1-GrBP, chimeric construct from BhorOBPm2; targets aldehydes and alkanes]
octanal affinity (QCM) (QCM VOC binding, octanal): notable | source-drain current upon ethyl butyrate exposure [1, 6]: 0.20±0.9 μA | source-drain current upon ethyl butyrate exposure ([1]; Vds=−3 V): 0.038±0.020 μA | CNT-FET signal response to ethyl butyrate exposure (in words) [1]: respond weakly

SHFVGGGYSSY [HcunPep1-GrBP, chimeric construct from HcunPBP3; target nonanal]
nonanal affinity (QCM) (QCM VOC binding, nonanal): notable

VGARNGGGYSSY [MmedPep1-GrBP, target ethyl butyrate]
SPR signal ([2]; 500 nM peptide concentration, carbon-coated gold surface): 158.4±44.1 RU | substrate preference of adsorption (carbon vs gold, poly-L-lysine) ([2]; SPR): specific preference for the carbon substrate; also recorded: specific absorption | SPR signal [3]: 18.4±1.7 RU | SPR signal [4]: 6.5±2.9 RU | source-drain current upon ethyl butyrate exposure [1, 6]: 1.21±0.43 μA | source-drain current upon ethyl butyrate exposure ([1]; Vds=−3 V): 0.542±0.721 μA | CNT-FET signal response to ethyl butyrate exposure (in words) [1]: robust signal response

VGGGAGRGNGGGYSSY [MmedPep1s-GrBP, glycine spacer variant of MmedPep1-GrBP; target ethyl butyrate]
ethyl butyrate binding preference (QCM) [5]: strongly selective | affinity for ethanol (QCM) (QCM VOC binding, ethanol): reduced affinity
